Data published in patent publication US10221163B2 (priority 2015, dated 2019).
Like-named read-outs stand apart in the source and are kept apart here.

Assays:
[1] = tested on: Pseudomonas aeruginosa efflux− (MB9799), IMP-1; assay type: cell-based; details: concentration restoring susceptibility to imipenem at 2 μg/mL in the presence of a class A, C, D serine β-lactamase inhibitor closely related to relebactam
Outline: (§1)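 Microbroth MIC tests in PAO1-background strains with fixed imipenem and/or ceftazidime, usually at the CLSI breakpoint, plus fixed class A/C β-lactamase inhibitor against AmpC. MBL inhibitor titrated; concentration restoring susceptibility recorded and compared as fold difference between efflux+ MB9798 and efflux− MB9799.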

[2] = tested on: Serratia marcescens expressing IMP-1 (CL5741); assay type: cell-based; details: with imipenem 1 μg/ml; 95% inhibition of bacterial growth
Outline: (§2)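 Growth by absorbance after 22–24 h at 35°C defined the read-out, with imipenem fixed at 1 μg/ml alongside compound. Inocula came from overnight blood-agar colonies at 35°C, resuspended in saline and diluted 1:100 in 1.1×CAMHB.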

[3] = tested on: Klebsiella pneumoniae expressing VIM-1 (IHMA599644); assay type: cell-based; details: with imipenem 1 μg/ml; 95% inhibition of bacterial growth
Outline: as §2

[4] = tested on: Escherichia coli expressing NDM-1 (CLB30005, CLB30016); assay type: cell-based; details: with imipenem 1 μg/ml; 95% inhibition of bacterial growth
Outline: as §2

[5] = tested on: Pseudomonas aeruginosa efflux+ (MB9798), IMP-1; assay type: cell-based; details: concentration restoring susceptibility to imipenem at 2 μg/mL in the presence of a class A, C, D serine β-lactamase inhibitor closely related to relebactam
Outline: as §1

[6] = tested on: Pseudomonas aeruginosa MB9798 vs MB9799; details: ratio MITC95 PA_9798/MITC95 PA_9799
Outline: as §1

[7] = target: VIM-1 (Pseudomonas aeruginosa (strain ATCC 15692 / DSM 22644 / CIP 104116 / JCM 14847 / LMG 12228 / 1C / PRS 101 / PAO1), UniProt A0A0F7KYQ8); assay: biochemical; details: CCF2-FA substrate, 30 pM enzyme, 2 hours at 25° C.
Outline: (§3)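 Fluorescence assay of metallo-β-lactamase activity using CCF2-FA, a cephalosporin-linked 7-hydroxycoumarin–fluorescein substrate. Inhibitor, enzyme and substrate were incubated together for 2 hours at 25° C. IC50 came from a 4-parameter fit of inhibition versus inhibitor concentration.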

[8] = target: NDM-1 (Klebsiella pneumoniae, UniProt C7C422); assay: biochemical; assay type: biochemical; details: fluorescence assay, CCF2-FA substrate, 1 pM enzyme, 2 hours at 25° C.; read-out: NDM-1 IC50
Outline: as §3

[9] = target: IMP-1 (Serratia marcescens, UniProt P52699); assay: biochemical; assay type: biochemical; details: fluorescence assay, CCF2-FA substrate, 2 pM enzyme, 2 hours at 25° C.; read-out: IMP-1 IC50
Outline: as §3

[10] = fluorescence assay, read-out: VIM-1 IC50

Sequence of IMP-1 (P52699 whole entry, looked up, species assumed): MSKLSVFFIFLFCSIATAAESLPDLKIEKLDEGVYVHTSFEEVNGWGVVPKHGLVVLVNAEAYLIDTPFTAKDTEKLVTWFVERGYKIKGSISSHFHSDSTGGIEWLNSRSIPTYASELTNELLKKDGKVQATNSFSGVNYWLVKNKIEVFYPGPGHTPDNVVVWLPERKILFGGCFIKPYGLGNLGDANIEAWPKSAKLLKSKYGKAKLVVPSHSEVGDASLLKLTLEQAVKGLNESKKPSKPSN
Sequence of NDM-1 (C7C422 whole entry, looked up, species assumed): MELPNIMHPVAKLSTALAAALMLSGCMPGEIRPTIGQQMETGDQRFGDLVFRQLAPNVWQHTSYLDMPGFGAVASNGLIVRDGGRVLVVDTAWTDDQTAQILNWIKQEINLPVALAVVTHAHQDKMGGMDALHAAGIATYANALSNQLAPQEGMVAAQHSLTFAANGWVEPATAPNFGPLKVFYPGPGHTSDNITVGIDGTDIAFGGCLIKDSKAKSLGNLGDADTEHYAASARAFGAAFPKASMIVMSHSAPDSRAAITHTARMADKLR

SMILES | P. aeruginosa expressing IMP-1, efflux − (MB9799) MITC95 [1] [µM] | Serratia marcescens expressing IMP-1 (CL5741) MITC95 [2] [µM] | Klebsiella pneumoniae expressing VIM-1 (IHMA599644) MITC95 [3] [µM] | Escherichia coli expressing NDM-1 (CLB30016) MITC95 [4] [µM] | P. aeruginosa expressing IMP-1, efflux + (MB9798) MITC95 [5] [µM] | Efflux ratio [6] | IC50 ([7]; VIM-1 IC50, fluorescence assay) [nM] | IC50 [8] [nM] | IC50 [9] [nM] | IC50 [7, 10] [nM]
Nc1nc2c(-c3ccc(S(=O)(=O)N[C@@H]4CN[C@H](CO)C4)c(S(N)(=O)=O)c3-c3nnn[nH]3)cccc2s1 [Example 80, 4-(2-amino-1,3-benzothiazol-4-yl)-N1-[(3S,5S)-5-(hydroxymethyl)pyrrolidin-3-yl]-3-(1H-tetrazol-5-yl)benzene-1,2-disulfonamide] | 1.563 | 1.563 | 3.125 | 1.563 | 1.563 | 1.00 | 0.158 | 0.0488 | 0.336 | 
Nc1nc2c(-c3ccc(S(=O)(=O)N[C@H]4CN[C@@H](CO)C4)c(S(N)(=O)=O)c3-c3nnn[nH]3)cccc2s1 [Example 81, 4-(2-amino-1,3-benzothiazol-4-yl)-N1-[(3R,5R)-5-(hydroxymethyl)pyrrolidin-3-yl]-3-(1H-tetrazol-5-yl)benzene-1,2-disulfonamide] | 1.563 | 1.563 | 1.563 | 1.563 | 0.7813 | 0.50 | 0.135 | 0.0286 | 0.191 | 
Nc1nc2c(-c3ccc(S(=O)(=O)N[C@H]4CN[C@@H](C(=O)O)C4)c(S(N)(=O)=O)c3-c3nnn[nH]3)cccc2s1 [Example 82, (4R)-4-({[4-(2-amino-1,3-benzothiazol-4-yl)-2-sulfamoyl-3-(1H-tetrazol-5-yl)phenyl]sulfonyl}amino)-D-proline] | 6.25 | 12.5 | 12.5 | 6.25 | 3.125 | 0.50 | 0.197 | 0.0493 | 0.206 | 
Nc1nc2c(-c3ccc(S(=O)(=O)NC4(CO)CCNC4)c(S(N)(=O)=O)c3-c3nnn[nH]3)cccc2s1 (stereo not drawn) [Example 83, 4-(2-amino-1,3-benzothiazol-4-yl)-N1-[3-(hydroxymethyl)pyrrolidin-3-yl]-3-(1H-tetrazol-5-yl)benzene-1,2-disulfonamide] | 1.563 | 3.125 | 3.125 | 3.125 | 0.7813 | 0.50 |  | 0.0483 | 0.261 | 0.208
Nc1nc2c(-c3ccc(S(=O)(=O)NC4(CO)CCNC4)c(S(N)(=O)=O)c3-c3nnn[nH]3)cccc2s1 (stereo not drawn) [Example 84, 4-(2-amino-1,3-benzothiazol-4-yl)-N1-[3-(hydroxymethyl)pyrrolidin-3-yl]-3-(1H-tetrazol-5-yl)benzene-1,2-disulfonamide] | 1.563 | 3.125 | 3.125 | 1.563 | 1.563 | 1.00 |  | 0.0619 | 0.403 | 0.27
COCCNCCNS(=O)(=O)c1ccc(-c2cccc3sc(N)nc23)c(-c2nnn[nH]2)c1S(N)(=O)=O [Example 85, 4-(2-aminobenzo[d]thiazol-4-yl)-N1-(2-((2-methoxyethyl)amino)ethyl)-3-(1H-tetrazol-5-yl)benzene-1,2-disulfonamide] | 1.563 | 3.125 | 6.25 | 6.25 | 1.563 | 1.00 |  | 0.0351 | 0.205 | 0.147
Nc1nc2c(-c3ccc(S(=O)(=O)NCC4(O)CCNCC4)c(S(N)(=O)=O)c3-c3nnn[nH]3)cccc2s1 [Example 86, 4-(2-aminobenzo[d]thiazol-4-yl)-N^1-((4-hydroxypiperidin-4-yl)methyl)-3-(1H-tetrazol-5-yl)benzene-1,2-disulfonamide] | 1.563 | 1.563 | 6.25 | 1.563 | 0.7813 | 0.50 |  | 0.0275 | 0.129 | 0.0756
CC(C)(N)CNS(=O)(=O)c1ccc(-c2cccc3sc(N)nc23)c(-c2nnn[nH]2)c1S(N)(=O)=O [Example 87, N^1-(2-amino-2-methylpropyl)-4-(2-aminobenzo[d]thiazol-4-yl)-3-(1H-tetrazol-5-yl)benzene-1,2-disulfonamide] | 1.563 | 3.125 | 6.25 | 3.125 | 0.7813 | 0.50 |  | 0.0367 | 0.261 | 0.197
Nc1nc2c(-c3ccc(S(=O)(=O)NC4CC5CNC4C5)c(S(N)(=O)=O)c3-c3nnn[nH]3)cccc2s1 (stereo not drawn) [Example 88, 4-(2-aminobenzo[d]thiazol-4-yl)-N^1-(2-azabicyclo[2.2.1]heptan-6-yl)-3-(1H-tetrazol-5-yl)benzene-1,2-disulfonamide] | 3.125 | 3.125 | 6.25 | 3.125 | 1.563 | 0.50 |  | 0.0203 | 0.172 | 0.165
Nc1nc2c(-c3ccc(S(=O)(=O)NC4CC5CNC4C5)c(S(N)(=O)=O)c3-c3nnn[nH]3)cccc2s1 (stereo not drawn) [Example 89, 4-(2-aminobenzo[d]thiazol-4-yl)-N^1-(2-azabicyclo[2.2.1]heptan-6-yl)-3-(1H-tetrazol-5-yl)benzene-1,2-disulfonamide] | 1.563 | 3.125 | 6.25 | 6.25 | 1.563 | 1.00 |  | 0.0581 | 0.568 | 0.23
NCCCNS(=O)(=O)c1ccc(-c2cccc3sc(N)nc23)c(-c2nnn[nH]2)c1S(N)(=O)=O.O=C(O)C(F)(F)F [Example 90, 3-(4-(2-aminobenzo[d]thiazol-4-yl)-2-sulfamoyl-3-(1H-tetrazol-5-yl)phenylsulfonamido)propan-1-aminium 2,2,2-trifluoroacetate] | 1.563 | 1.563 | 3.125 | 3.125 | 0.7813 | 0.50 |  | 0.0795 | 0.411 | 0.27
Nc1nc2c(-c3ccc(S(=O)(=O)NCC4(F)CNC4)c(S(N)(=O)=O)c3-c3nnn[nH]3)cccc2s1.O=CO [Example 91, 3-(((4-(2-aminobenzo[d]thiazol-4-yl)-2-sulfamoyl-3-(1H-tetrazol-5-yl)phenyl)sulfonamido)methyl)-3-fluoroazetidin-1-ium formate] | 1.563 | 1.563 | 3.125 | 1.563 | 1.563 | 1.00 | 0.327 | 0.0769 | 0.326 | 
